Measured values: patent US20250205207A1, “MATRIX TABLETS OF DEXPRAMIPEXOLE AND METHODS OF MANUFACTURING AND USE THEREOF” (Areteia Therapeutics, Inc., priority 2023, published 2025)

Tests used:
[1] = during tablet manufacture and storage
[2] = across the physiological pH range; cited from earlier work
dopamine receptors = conditions: compared to pramipexole; cited from earlier work
[3] = test system: eosinophil counts in human blood and tissues; conditions: cited from earlier work

For CCCN[C@@H]1CCc2nc(N)sc2C1, the “chiral purity over time” value [1] is given as “did not change over time” and the solubility [2] is given as “freely soluble”.
For CCCN[C@@H]1CCc2nc(N)sc2C1 [dexpramipexole, (6R)-2-amino-4,5,6,7-tetrahydro-6-(propylamino)benzothiazole], the “affinity for dopamine receptors” value (dopamine receptors) is listed as “greatly reduced when compared to pramipexole” and the “effect on eosinophil counts” value [3] is listed as “selectively and significantly lower eosinophil counts”.
